Experiments:
Format in all cases: cell-based
[1] = system: SMN2 CJ mRNA; assay: Gene panel canonical junction qPCR assay: SMN2; settings: Table 3, concentration having 50% response in CJ decrease, read-out: SMN2 IC50 (decrease in CJ mRNA levels)
In short: (§1)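 A673 or K562 cells were treated 24 h at 37 °C with an 11-point 3-fold dilution series (top 10 uM; ≤0.25% DMSO). Canonical-junction mRNA was then measured in lysates by one-step RT-qPCR. Values were normalized to a housekeeping gene (GAPDH, GUSB or PPIA) and to the DMSO control via 2^(−ΔΔCt).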

[2] = system: Target C CJ mRNA; assay: Gene panel canonical junction qPCR assay: Target C; settings: Table 3, concentration having 50% response in CJ decrease, read-out: Target C IC50 (decrease in CJ mRNA levels)
In short: as §1

[3] = system: HTT CJ mRNA; assay: Gene panel canonical junction qPCR assay: HTT; settings: Table 3, concentration having 50% response in CJ decrease, read-out: HTT IC50 (decrease in CJ mRNA levels)
In short: as §1

[4] = system: HTT CJ mRNA; assay: Splicing assay (RT-qPCR): decrease in HTT canonical junction (CJ) mRNA; settings: A673 or K562 cells, 24 hours treatment; concentration having 50% response in CJ mRNA decrease
In short: (§2)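 A673 (DMEM/10% FBS) or K562 (IMDM/10% FBS) cells treated 24 h at 37 °C with 11-point 3-fold dilutions, top final 10 uM, DMSO ≤0.25%. Lysates taken directly to RT-qPCR for HTT CJ and AJ isoforms, normalized to GAPDH, GUSB or PPIA. ΔΔCt vs DMSO control converted to RQ (2^−ΔΔCt), then percentage response.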

[5] = system: HTT AJ mRNA; assay: Splicing assay (RT-qPCR): increase in HTT alternative junction (AJ) mRNA; settings: A673 or K562 cells, 24 hours treatment; concentration having 50% response in AJ mRNA increase
In short: as §2

Structure (SMILES) | IC50 [1] [µM] | IC50 [2] [µM] | IC50 [3] [µM] | AC50 [4] [µM] | AC50 [5] [µM]
Cc1cn2cc(NC(=O)c3cc(F)c(C4CCNCC4)s3)cc(F)c2n1 [Compound 188, 4-fluoro-N-[8-fluoro-2-methylimidazo[1,2-a]pyridin-6-yl]-5-(piperidin-4-yl)thiophene-2-carboxamide] | 0.1 to 1 | > 0.01 | 0.1 to 1 | 0.1 to 1 | > 10
COc1cc(N2CCNCC2=O)sc1C(=O)Nc1cc(F)c2nc(C)cn2c1 [Compound 189, N-[8-fluoro-2-methylimidazo[1,2-a]pyridin-6-yl]-3-methoxy-5-(2-oxopiperazin-1-yl)thiophene-2-carboxamide] | > 0.01 | > 0.01 | > 0.01 | > 10 | > 10
Cc1cn2cc(NC(=O)c3sc(C4CCNCC4)cc3Cl)cc(F)c2n1 [Compound 190, 3-chloro-N-[8-fluoro-2-methylimidazo[1,2-a]pyridin-6-yl]-5-(piperidin-4-yl) thiophene-2-carboxamide] | < 0.1 | 1 to 10 | < 0.1 | < 0.1 | 0.1 to 1
Cc1cn2cc(NC(=O)c3cc(Cl)c(C4CCNCC4)s3)cc(F)c2n1 [Compound 193, 4-chloro-N-[8-fluoro-2-methylimidazo[1,2-a]pyridin-6-yl]-5-(piperidin-4-yl) thiophene-2-carboxamide] | 1 to 10 | > 0.01 | > 0.01 | > 10 | > 10
Cc1cn2cc(NC(=O)c3sc([C@@H]4CCN[C@H](C)C4)cc3F)cc(C(F)(F)F)c2n1 [Compound 196, 3-fluoro-N-[2-methyl-8-(trifluoromethyl)imidazo[1,2-a]pyridin-6-yl]-5-[(cis-)-2-methylpiperidin-4-yl]thiophene-2-carboxamide] | 0.1 to 1 | > 0.01 | 1 to 10 | 1 to 10 | > 10
Cc1cn2cc(NC(=O)c3sc([C@H]4CCN[C@H](C)C4)cc3F)cc(C(F)(F)F)c2n1 [Compound 197, 3-fluoro-N-[2-methyl-8-(trifluoromethyl)imidazo[1,2-a]pyridin-6-yl]-5-[(trans-)-2-methylpiperidin-4-yl]thiophene-2-carboxamide] | 0.1 to 1 | > 0.01 | 1 to 10 | 1 to 10 | 1 to 10

Further lines, with some results ahead:

IC50 [1] [µM] | IC50 [2] [µM] | IC50 [3] [µM] | Structure (SMILES) | AC50 [4] [µM] | AC50 [5] [µM]
0.1 to 1 | 1 to 10 | 1 to 10 | Cc1cn2nc(NC(=O)c3sc(C4CCNCC4)cc3F)cc2c(C)n1 [Compound 191, N-[4,6-dimethylpyrazolo[1,5-a]pyrazin-2-yl]-3-fluoro-5-(piperidin-4-yl)thiophene-2-carboxamide] | 1 to 10 | 1 to 10
> 0.01 | > 0.01 | > 0.01 | Cc1cn2nc(NC(=O)c3sc(C4CCNCC4)cc3F)nc2c(C)n1 [Compound 192, N-[6,8-dimethyl-[1,2,4]triazolo[1,5-a]pyrazin-2-yl]-3-fluoro-5-(piperidin-4-yl)thiophene-2-carboxamide] | > 10 | > 10
< 0.1 | > 0.01 | 0.1 to 1 | Cc1cn2cc(NC(=O)c3sc(C4CCNCC4)cc3F)nc2c(C)n1 [Compound 195, N-[6,8-dimethylimidazo[1,2-a]pyrazin-2-yl]-3-fluoro-5-(piperidin-4-yl)thiophene-2-carboxamide] | 0.1 to 1 | 1 to 10

Source: patent US20230142338A1, “THIOPHENYL DERIVATIVES USEFUL FOR MODULATING NUCLEIC ACID SPLICING” (REMIX THERAPEUTICS INC., priority 2020, published 2023)
